The results in this text go back to patent US9932314B2, “Pyrazole compounds and their use as T-type calcium channel blockers” (IDORSIA PHARMACEUTICALS LTD, priority 2015, dated 2018).

What is called IC50 is the concentration at which inhibition is half-maximal.

In the experiment the target is T1, voltage-dependent T-type calcium channel subunit alpha-1G (Cav3.2) (Homo sapiens, UniProt O95180).
T1 construct: expressed in transfected cells; host or cells: HEK293
T1 sequence (O95180 whole entry): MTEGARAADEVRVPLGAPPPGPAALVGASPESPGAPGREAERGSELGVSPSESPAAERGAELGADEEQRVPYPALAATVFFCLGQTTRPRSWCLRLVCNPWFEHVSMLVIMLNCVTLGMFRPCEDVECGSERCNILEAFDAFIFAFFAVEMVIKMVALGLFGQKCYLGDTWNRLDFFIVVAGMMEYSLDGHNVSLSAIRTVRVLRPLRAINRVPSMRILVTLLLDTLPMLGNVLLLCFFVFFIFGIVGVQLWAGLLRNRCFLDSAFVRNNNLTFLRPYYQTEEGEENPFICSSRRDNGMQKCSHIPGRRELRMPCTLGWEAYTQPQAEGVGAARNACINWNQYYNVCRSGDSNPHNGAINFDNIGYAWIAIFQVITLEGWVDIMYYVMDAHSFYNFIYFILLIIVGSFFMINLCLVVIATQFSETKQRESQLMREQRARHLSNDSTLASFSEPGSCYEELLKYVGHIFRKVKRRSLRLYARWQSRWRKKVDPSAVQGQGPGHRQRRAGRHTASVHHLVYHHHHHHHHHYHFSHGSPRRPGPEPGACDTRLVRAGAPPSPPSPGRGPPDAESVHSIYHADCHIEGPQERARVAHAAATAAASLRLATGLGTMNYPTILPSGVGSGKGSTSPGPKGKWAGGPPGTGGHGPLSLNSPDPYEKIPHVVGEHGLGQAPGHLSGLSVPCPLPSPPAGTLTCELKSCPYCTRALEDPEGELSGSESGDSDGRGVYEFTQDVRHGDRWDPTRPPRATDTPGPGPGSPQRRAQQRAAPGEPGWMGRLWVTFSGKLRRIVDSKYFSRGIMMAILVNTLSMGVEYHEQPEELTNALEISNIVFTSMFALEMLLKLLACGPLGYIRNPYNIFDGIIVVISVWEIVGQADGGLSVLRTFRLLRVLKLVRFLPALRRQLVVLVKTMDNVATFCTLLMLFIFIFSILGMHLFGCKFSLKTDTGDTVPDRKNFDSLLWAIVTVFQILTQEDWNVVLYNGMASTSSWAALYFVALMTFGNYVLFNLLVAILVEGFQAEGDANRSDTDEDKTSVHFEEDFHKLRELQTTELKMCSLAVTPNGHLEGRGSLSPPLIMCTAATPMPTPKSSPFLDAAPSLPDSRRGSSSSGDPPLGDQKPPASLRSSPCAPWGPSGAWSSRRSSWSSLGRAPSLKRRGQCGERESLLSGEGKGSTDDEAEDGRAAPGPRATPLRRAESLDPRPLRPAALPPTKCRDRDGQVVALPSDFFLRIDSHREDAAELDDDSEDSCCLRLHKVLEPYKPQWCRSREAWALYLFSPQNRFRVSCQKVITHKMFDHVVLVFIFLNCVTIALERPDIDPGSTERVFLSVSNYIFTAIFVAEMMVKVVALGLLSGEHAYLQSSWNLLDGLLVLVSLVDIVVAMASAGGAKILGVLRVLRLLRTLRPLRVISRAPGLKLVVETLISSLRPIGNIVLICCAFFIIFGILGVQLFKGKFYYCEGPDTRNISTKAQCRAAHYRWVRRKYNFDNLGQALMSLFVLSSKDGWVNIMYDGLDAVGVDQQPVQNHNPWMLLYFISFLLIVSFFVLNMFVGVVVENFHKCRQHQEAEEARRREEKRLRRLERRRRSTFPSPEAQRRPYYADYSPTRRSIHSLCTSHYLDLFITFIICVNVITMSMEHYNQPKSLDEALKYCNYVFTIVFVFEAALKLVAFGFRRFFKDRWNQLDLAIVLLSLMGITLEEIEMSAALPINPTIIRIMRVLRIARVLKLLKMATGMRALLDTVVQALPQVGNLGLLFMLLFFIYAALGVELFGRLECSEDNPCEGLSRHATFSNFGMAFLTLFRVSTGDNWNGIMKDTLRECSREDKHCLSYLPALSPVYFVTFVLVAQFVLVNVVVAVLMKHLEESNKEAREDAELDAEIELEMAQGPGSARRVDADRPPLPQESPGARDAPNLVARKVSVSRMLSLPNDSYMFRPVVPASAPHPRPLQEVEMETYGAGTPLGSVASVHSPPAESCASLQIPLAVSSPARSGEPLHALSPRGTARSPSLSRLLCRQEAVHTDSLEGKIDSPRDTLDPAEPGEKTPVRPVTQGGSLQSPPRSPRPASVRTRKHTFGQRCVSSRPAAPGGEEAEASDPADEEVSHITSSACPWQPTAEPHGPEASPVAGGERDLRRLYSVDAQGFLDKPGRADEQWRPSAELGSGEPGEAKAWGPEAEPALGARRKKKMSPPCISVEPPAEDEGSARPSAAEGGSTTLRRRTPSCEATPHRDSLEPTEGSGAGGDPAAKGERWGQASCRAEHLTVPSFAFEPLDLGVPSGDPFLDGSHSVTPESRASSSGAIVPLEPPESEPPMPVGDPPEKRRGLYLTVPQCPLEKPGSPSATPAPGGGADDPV
Briefly: FLIPR calcium flux assay, HEK293 cells recombinantly expressing Cav3.2. The experiment is classed as cell-based. Particulars: Cav3.2-channel, Fluo-4-AM, 3 min incubation, stimulation with 10 mM CaCl2. In a few lines:
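HEK293 cells stably expressing human Cav3.2 were loaded with Fluo-4-AM. Compounds diluted in TEAC buffer (pH 7.2) were preincubated for 3 min, then Ca2+ entry was triggered by 10 mM final CaCl2. Inhibition curves were fitted sigmoidally to the area under the fluorescence trace.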
Consider `CC1(COc2ccc(CC(=O)Nc3ccn(Cc4ccc(C#N)cn4)n3)cc2)CC(F)(F)C1` [Example 303, N-[1-(5-Cyano-pyridin-2-ylmethyl)-1H-pyrazol-3-yl]-2-[4-(3,3-difluoro-1-methyl-cyclobutylmethoxy)-phenyl]-acetamide], for which the concentration for half-maximal inhibition (IC50) came to 0.051 µM.
Next, `N#Cc1ccc(Cn2ccc(NC(=O)Cc3ccc(OCC4CC(F)(F)C4)cc3)n2)nc1` [Example 304, N-[1-(5-Cyano-pyridin-2-ylmethyl)-1H-pyrazol-3yl]-2-[4-(3,3-difluoro-cyclobutylmethoxy)-phenyl]-acetamide]: 0.118 µM; `N#Cc1ccc(Cn2ccc(NC(=O)Cc3ccc(C4CC(F)(F)C4)cc3)n2)nc1` [Example 305, N-[1-(5-Cyano-pyridin-2-ylmethyl)-1H-pyrazol-3-yl]-2-[4-(3,3-difluoro-cyclobutyl)-phenyl]-acetamide]: 0.029 µM.
Next, `N#Cc1cc(Cn2ccc(NC(=O)Cc3ccc(N4CCC(F)(F)C4)nc3)n2)ccc1F` [Example 306, N-[1-(3-Cyano-4-fluoro-benzyl)-1H-pyrazol-3-yl]-2-[6-(3,3-difluoro-pyrrolidin-1-yl)-pyridin-3-yl]-acetamide]: 0.017 µM.
The figure for `N#Cc1cc(Cn2ccc(NC(=O)Cc3ccc(N4CCCC4)nc3)n2)ccc1F` [Example 307, N-[1-(3-Cyano-4-fluoro-benzyl)-1H-pyrazol-3-yl]-2-(6-pyrrolidin-1-yl-pyridin-3-yl)-acetamide] is 0.042 µM; for `Cn1ncc2ccc(CC(=O)Nc3ccn(Cc4ccc(F)c(C#N)c4)n3)cc21` [Example 308, N-[1-(3-Cyano-4-fluoro-benzyl)-1H-pyrazol-3-yl]-2-(1-methyl-1H-indazol-6-yl)-acetamide] it is 0.263 µM; for `Cn1ccc2ccc(CC(=O)Nc3ccn(Cc4ccc(F)c(C#N)c4)n3)cc21` [Example 309, N-[1-(3-Cyano-4-fluoro-benzyl)-1H-pyrazol-3-yl]-2-(1-methyl-1H-indol-6-yl)-acetamide] it is 0.027 µM.
On to `Cn1ccc2cc(CC(=O)Nc3ccn(Cc4ccc(F)c(C#N)c4)n3)ccc21` [Example 310, N-[1-(3-Cyano-4-fluoro-benzyl)-1H-pyrazol-3-yl]-2-(1-methyl-1H-indol-5-yl)-acetamide], for which the IC50 is 0.013 µM.
The figure for `CC1(COc2ccc(CC(=O)Nc3ccn(Cc4ccc(F)c(C#N)c4)n3)cc2)CC(F)(F)C1` [Example 311, N-[1-(3-Cyano-4-fluoro-benzyl)-1H-pyrazol-3-yl]-2-[4-(3,3-difluoro-1-methyl-cyclobutylmethoxy)-phenyl]-acetamide] is 0.081 µM.
Next, `N#Cc1cc(Cn2ccc(NC(=O)Cc3ccc(C4CC(F)(F)C4)cc3)n2)ccc1F` [Example 312, N-[1-(3-Cyano-4-fluoro-benzyl)-1H-pyrazol-3-yl]-2-[4-(3,3-difluoro-cyclobutyl)-phenyl]-acetamide]: 0.01 µM; `N#Cc1cc(Cn2ccc(NC(=O)Cc3ccc(OCC4CC(F)(F)C4)cc3)n2)ccc1F` [Example 313, N-[1-(3-Cyano-4-fluoro-benzyl)-1H-pyrazol-3-yl]-2-[4-(3,3-difluoro-cyclobutylmethoxy)-phenyl]-acetamide]: 0.045 µM.
The figure for `N#Cc1cc(Cn2ccc(NC(=O)Cc3ccc(C4(C(F)(F)F)CC4)cc3)n2)ccc1F` [Example 314, N-[1-(3-Cyano-4-fluoro-benzyl)-1H-pyrazol-3-yl]-2-[4-(1-trifluoromethyl-cyclopropyl)-phenyl]-acetamide] is 0.032 µM.
Consider `O=C(Cc1ccc(C2(F)COC2)nc1)Nc1ccn(Cc2ccc(F)c(F)c2)n1` [Example 315, N-[1-(3,4-Difluoro-benzyl)-1H-pyrazol-3-yl]-2-[6-(3-fluoro-oxetan-3-yl)-pyridin-3-yl]-acetamide], for which the half-inhibitory concentration (IC50) turned out to be 0.24 µM.
The figure for `CC1(c2ccc(CC(=O)Nc3ccn(Cc4ccc(F)c(C#N)c4)n3)cc2)COC1` [Example 316, N-[1-(3-Cyano-4-fluoro-benzyl)-1H-pyrazol-3-yl]-2-[4-(3-methyl-oxetan-3-yl)-phenyl]-acetamide] is 0.036 µM; for `CC1(c2ccc(CC(=O)Nc3ccn(Cc4ccc(C#N)cc4)n3)cc2)COC1` [Example 317, N-[1-(4-Cyano-benzyl)-1H-pyrazol-3-yl]-2-[4-(3-methyl-oxetan-3-yl)-phenyl]-acetamide] it is 0.056 µM.
Next, `CC1(c2ccc(CC(=O)Nc3ccn(Cc4ccc(C#N)cn4)n3)cc2)COC1` [Example 318, N-[1-(5-Cyano-pyridin-2-ylmethyl)-1H-pyrazol-3-yl]-2-[4-(3-methyl-oxetan-3-yl)-phenyl]-acetamide]: 0.378 µM; `Cc1cn(C)c2ncc(CC(=O)Nc3ccn(Cc4ccc(F)c(C#N)c4)n3)cc12` [Example 321, N-[1-(3-Cyano-4-fluoro-benzyl)-1H-pyrazol-3-yl]-2-(1,3-dimethyl-1H-pyrrolo[2,3-b]pyridin-5-yl)-acetamide]: 0.091 µM; `Cc1cn(C)c2ncc(CC(=O)Nc3ccn(Cc4ccc(C#N)cn4)n3)cc12` [Example 322, N-[1-(5-Cyano-pyridin-2-ylmethyl)-1H-pyrazol-3-yl]-2-(1,3-dimethyl-1H-pyrrolo[2,3-b]pyridin-5-yl)-acetamide]: 0.856 µM.
Next, `Cn1cc(C2CCC2)c2cc(CC(=O)Nc3ccn(Cc4ccc(C#N)cn4)n3)ccc21` [Example 323, N-[1-(5-Cyano-pyridin-2-ylmethyl)-1H-pyrazol-3-yl]-2-(3-cyclobutyl-1-methyl-1H-indol-5-yl)-acetamide]: 0.036 µM.
In the case of `CC(C)c1cn(C)c2ccc(CC(=O)Nc3ccn(Cc4ccc(C#N)cn4)n3)cc12` [Example 324, N-[1-(5-Cyano-pyridin-2-ylmethyl)-1H-pyrazol-3-yl]-2-(3-isopropyl-1-methyl-1H-indol-5-yl)-acetamide], the IC50 was 0.031 µM.
In the case of `Cn1cc(C#N)c2cc(CC(=O)Nc3ccn(Cc4ccc(C#N)cn4)n3)ccc21` [Example 325, 2-(3-Cyano-1-methyl-1H-indol-5-yl)-N-[1-(5-cyano-pyridin-2-ylmethyl)-1H-pyrazol-3-yl]-acetamide], the IC50 turned out to be 0.893 µM.
Next, `Cn1cc(C(F)(F)F)c2cc(CC(=O)Nc3ccn(Cc4ccc(C#N)cn4)n3)ccc21` [Example 326, N-[1-(5-Cyano-pyridin-2-ylmethyl)-1H-pyrazol-3-yl]-2-(1-methyl-3-trifluoromethyl-1H-indol-5-yl)-acetamide]: 0.033 µM; `Cn1cc(C2CCC2)c2cc(CC(=O)Nc3ccn(Cc4ccc(F)c(C#N)c4)n3)ccc21` [Example 327, N-[1-(3-Cyano-4-fluoro-benzyl)-1H-pyrazol-3-yl]-2-(3-cyclobutyl-1-methyl-1H-indol-5-yl)-acetamide]: 0.037 µM; `CC(C)c1cn(C)c2ccc(CC(=O)Nc3ccn(Cc4ccc(F)c(C#N)c4)n3)cc12` [Example 328, N-[1-(3-Cyano-4-fluoro-benzyl)-1H-pyrazol-3-yl]-2-(3-isopropyl-1-methyl-1H-indol-5-yl)-acetamide]: 0.033 µM.
The figure for `Cn1cc(C#N)c2cc(CC(=O)Nc3ccn(Cc4ccc(F)c(C#N)c4)n3)ccc21` [Example 329, N-[1-(3-Cyano-4-fluoro-benzyl)-1H-pyrazol-3-yl]-2-(3-cyano-1-methyl-1H-indol-5-yl)-acetamide] is 0.08 µM; for `Cc1cn(C)c2cc(CC(=O)Nc3ccn(Cc4ccc(F)c(C#N)c4)n3)ccc12` [Example 330, N-[1-(3-Cyano-4-fluoro-benzyl)-1H-pyrazol-3-yl]-2-(1,3-dimethyl-1H-indol-6-yl)-acetamide] it is 0.0048 µM.
Next, `Cc1cn(C)c2cc(CC(=O)Nc3ccn(Cc4ccc(C#N)cn4)n3)ccc12` [Example 331, N-[1-(5-Cyano-pyridin-2-ylmethyl)-1H-pyrazol-3-yl]-2-(1,3-dimethyl-1H-indol-6-yl)-acetamide]: 0.0096 µM; `N#Cc1cc(Cn2ccc(NC(=O)Cc3ccc(F)cc3OCC(F)(F)F)n2)ccc1F` [Example 332, N-[1-(3-Cyano-4-fluoro-benzyl)-1H-pyrazol-3-yl]-2-[4-fluoro-2-(2,2,2-trifluoro-ethoxy)-phenyl]-acetamide]: 0.6 µM; `N#Cc1ccc(Cn2ccc(NC(=O)Cc3ccc(F)cc3OCC(F)(F)F)n2)nc1` [Example 333, N-[1-(5-Cyano-pyridin-2-ylmethyl)-1H-pyrazol-3-yl]-2-[4-fluoro-2-(2,2,2-trifluoro-ethoxy)-phenyl]-acetamide]: 2.79 µM.
`N#Cc1cc(Cn2ccc(NC(=O)Cc3ccc(S(F)(F)(F)(F)F)cc3)n2)ccc1F` [Example 334, N-(1-(3-cyano-4-fluorobenzyl)-1H-pyrazol-3-yl)-2-(4-(pentafluoro-λ^6-sulfanyl)phenyl)acetamide]: the IC50 was 0.021 µM.
In the case of `CC(C)(C#N)c1ccc(CC(=O)Nc2ccn(Cc3ccc(F)c(C#N)c3)n2)cc1` [Example 335, 2-[4-(Cyano-dimethyl-methyl)-phenyl]-N-[1-(3-cyano-4-fluoro-benzyl)-1H-pyrazol-3-yl]-acetamide], the IC50 was 0.02 µM.
The figure for `N#Cc1ccc(Cn2ccc(NC(=O)Cc3ccc(S(F)(F)(F)(F)F)cc3)n2)nc1` [Example 336, N-(1-((5-cyanopyridin-2-yl)methyl)-1H-pyrazo1-3-yl)-2-(4-(pentafluoro-λ^6-sulfanyl)phenyl)acetamide] is 0.034 µM; for `CC(C)(C#N)c1ccc(CC(=O)Nc2ccn(Cc3ccc(C#N)cn3)n2)cc1` [Example 337, 2-[4-(Cyano-dimethyl-methyl)-phenyl]-N-[1-(5-cyano-pyridin-2-ylmethyl)-1H-pyrazol-3-yl]-acetamide] it is 0.168 µM.
In the case of `N#Cc1ccc(Cn2ccc(NC(=O)Cc3ccc(C(F)(F)F)cc3)n2)nc1` [Example 338, N-[1-(5-Cyano-pyridin-2-ylmethyl)-1H-pyrazol-3-yl]-2-(4-trifluoromethyl-phenyl)-acetamide], the IC50 is 0.061 µM.
